Test results: PubChem BioAssay (NCI)
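Exposure lasted 48 hours, with cells grown in 96-well plates and compounds tested at five concentrations. The concentration for 50% growth inhibition is given as GI50. At the TGI there is no net growth.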

Key:
Assay in all cases: NCI tumour cell line growth inhibition, 48 h
[1] = tested on: HL-60(TB) leukemia
[2] = tested on: NCI/ADR-RES ovarian
[3] = tested on: HOP-62 NSCLC
[4] = tested on: IGROV1 ovarian
[5] = tested on: U251 CNS
[6] = tested on: SNB-19 CNS
[7] = tested on: M14 melanoma
[8] = tested on: HT29 colon
[9] = tested on: SW-620 colon
[10] = tested on: RXF 393 renal

Row | SMILES | GI50 [1] [µM] | TGI [1] [µM] | GI50 [2] [µM] | TGI [2] [µM] | GI50 [3] [µM] | TGI [3] [µM] | GI50 [4] [µM] | TGI [4] [µM] | GI50 [5] [µM] | TGI [5] [µM] | GI50 [6] [µM] | TGI [6] [µM] | GI50 [7] [µM] | TGI [7] [µM] | GI50 [8] [µM] | TGI [8] [µM] | GI50 [9] [µM] | TGI [9] [µM] | GI50 [10] [µM] | TGI [10] [µM]
1 | Cc1ccc(S(=O)(=O)N(CCOc2ccc(/C(N)=N/Cl)cc2)CCOc2ccc(/C(N)=N\Cl)cc2)cc1 | 7.65 | 48.6 | > 100 | > 100 | 12 | 33.2 | 11.7 | 40.7 | 3.91 | 16.8 | 5.65 | > 100 | 35.1 | > 100 | 9.8 | > 100 | 26.9 | > 100 | – | –
2 | O=[N+]([O-])/C=C\c1ccc(Cl)c(Cl)c1 | 2.15 | 10.5 | 2.18 | 4.78 | 2.88 | 9.57 | 0.602 | 2.02 | 0.916 | 2.14 | 3.77 | 16.7 | 1.63 | 3.29 | – | – | 1.3 | 3.3 | 1.68 | 3.11
3 | CCCCNC1=C(C(=O)OCC)C(=O)CO1 | – | > 100 | – | – | – | > 100 | – | > 100 | – | > 100 | – | > 100 | – | > 100 | – | > 100 | – | > 100 | – | > 100
4 | CN(C)CCC(=O)N1C/C(=C/c2ccccc2)C(=O)/C(=C\c2ccccc2)C1 | – | 1.81 | – | – | – | 16 | – | 7.02 | – | 2 | – | 7.62 | – | 6.53 | – | 2.69 | – | 1.22 | – | 4.94
5 | CC1=C(C(=O)Nc2ccc([N+](=O)[O-])cc2)C(c2ccc(N(C)C)cc2)C(C(=O)Nc2ccc([N+](=O)[O-])cc2)=C(C)N1 | – | 38.7 | – | – | – | 27.5 | – | 61.9 | – | 66.5 | – | > 100 | – | 40.9 | – | 46.9 | – | 69.8 | – | 30.9
6 | CCc1c(Oc2ccc(C(C)=O)cc2)c2ccccc2[nH]c1=O | – | – | 23 | > 74 | 20.4 | 74.3 | 28.8 | > 100 | 19.2 | > 82 | 30.7 | > 100 | 18.5 | 65.9 | 26.9 | > 100 | 22.2 | 67.4 | 20.1 | 45.7
7 | CCCCN(CCCC)C(=O)C(=O)C(C#N)c1ccc(C)cc1 (centres undefined) | – | > 100 | – | – | – | > 100 | – | > 100 | – | > 100 | – | > 100 | – | > 100 | – | > 100 | – | > 100 | – | > 100
8 | Cn1cc(-c2cnc3ccc(NC(=O)Nc4ccc(F)c(Br)c4)cc3n2)cn1 | – | – | 2.21 | 5.41 | 1.8 | 3.84 | 1.6 | 3.49 | 1.76 | 3.88 | 2.66 | 10.4 | 1.57 | 3.14 | – | – | 1.85 | 3.83 | 1.73 | 4.67
9 | COc1ccc2c(c1)c(-c1nc(-c3cn(C)c4ncccc34)cs1)cn2CCCN1CCCCC1 | 1.81 | 3.62 | 1.76 | 3.46 | – | – | 1.74 | 3.46 | 1.81 | 3.23 | 1.9 | 3.52 | 1.65 | 3.11 | – | – | 1.9 | 3.63 | 1.68 | 3.29
10 | O=C1/C(=C/c2ccc(Cl)cc2Cl)N=C(c2ccccc2)N1Cc1ccco1 | 18.3 | 52.3 | 25.5 | 57.9 | 18.4 | 38.9 | 18.6 | 51 | 20.5 | 40.5 | – | – | 29.1 | > 100 | – | – | 46 | > 100 | 22.6 | 51.8
11 | N#CSCC1CC(O)(c2ccccc2)C(c2ccccc2)C(c2ccc(Cl)cc2)O1 (centres undefined) | 1.55 | 5.77 | 1.67 | 3.43 | 2.08 | 3.96 | 2 | 3.74 | 1.58 | 3.12 | – | – | 1.53 | 3.15 | 1.02 | 2.45 | 1.63 | 3.93 | 1.62 | 3.24
12 | CN(C)CCNc1cc(-c2ccccc2)nc2ccccc12 | 4.58 | 22.3 | 9.11 | 53.3 | 6.02 | 32.9 | 6.57 | 35.1 | 3.48 | 11.2 | 14.6 | 49.7 | 10.3 | 24.8 | 4.01 | 16.7 | 3.94 | 21.5 | – | –
13 | COC(=O)C[C@H]1CCC2(OCCO2)[C@]1(C)C(=O)OC | – | > 100 | – | – | – | > 100 | – | > 100 | – | > 100 | – | > 100 | – | > 100 | – | > 100 | – | > 100 | – | > 100
14 | C=C(CN1CCc2ccccc2C1)c1ccc(C(=O)Nc2cnccn2)cc1 | 3.55 | 14 | 4.95 | > 100 | 27.1 | > 100 | – | – | 16.2 | > 100 | 51.1 | > 100 | – | – | 24.1 | 59.5 | 42.3 | > 100 | 39 | > 100
15 | CN1CCN(Cc2ccc(NC(=O)c3cncc(C#Cc4cnc(N)c5ccc(C#N)cc45)c3)cc2C(F)(F)F)CC1 | 0.0483 | 1.05 | 0.915 | 2.03 | 0.0439 | 0.927 | – | – | 0.0235 | 0.846 | – | – | 0.0151 | 0.258 | 0.0211 | 0.838 | 0.059 | 1.45 | 0.0162 | 0.151
16 | COc1ccc2cc1Oc1ccc(cc1)CC1c3cc(c(OC)cc3CCN1C)Oc1c3c(cc4c1C(C2)N(C)CC4)OCO3 (centres undefined) | – | 6.66 | – | – | – | 29.8 | – | 28.8 | – | 17.3 | – | 31.5 | – | 3.52 | – | 8.25 | – | 25.8 | – | 6.24
